# Test results: a melting point compilation (Tetko et al.; mined from patent text by program, amines drawn as free bases though some values may be those of a salt)
row,melting point [°C],Structure (SMILES)
1,196 to 199,CC(C)[C@H](NC(=O)OCc1ccccc1)C(=O)NC(Cc1ccccc1)C(O)C(Cc1ccccc1)NC(=O)[C@@H](NC(=O)c1cccnc1)C(C)C (some centres undefined)
2,157 to 161,CS(=O)(=O)c1ccc(C=CCN2CCc3nc(N)sc3CC2)cc1
3,61 to 62,Nc1c(Cl)ccc(Br)c1F
4,154 to 156,O=c1c2cnc(-c3ccccc3)nc2sn1Cc1ccccn1
5,132 to 136,CCn1c(C)c(C2(N(c3ccccc3)c3ccccc3)OCc3cccnc32)c2ccccc21 (centres undefined)
6,135 to 136,COc1ccc(CN2C=CC=C3C2=Nc2cc(C)ccc2S(=O)(=O)N3C)cc1
7,137,CCCCn1c(=O)c2c(nc(/C=C/c3cc(OC)c(OC)c(OC)c3)n2C)n(CCCC)c1=O
8,82 to 83,CCCCCCOc1ccc(C(=O)NC2CCC(C)(C)C2)cc1 (centres undefined)
9,110 to 112,O=C1NNC2=CC(=O)N(c3ccccc3)c3cc(Cl)ccc3N12
10,129,CNCCCCN1CC[C@H](NC(=O)c2cc(Cl)c(N)cc2OC)[C@H](OC)C1 (relative stereo)
11,125,CCOC(=O)CCN(C(C)(C)C(=O)NO)S(=O)(=O)c1ccc(Oc2ccc(F)cc2)cc1
12,206 to 207,Cn1c(=O)c2sccc2n2cnc(-c3nc(C4CC4)no3)c12
13,160 to 161,COCCN(C)C(=O)c1cc2c(nc(C)n2C)c2c1CCC1(Cc3ccccc3C1)N2
14,80 to 84,CCCCCCCCCCCC(=O)NCCO
15,103 to 104,Clc1ccc(-c2ccco2)nn1
16,108 to 110,COC(=O)c1cnccc1SCc1ccc(OC)cc1
17,117 to 118,COc1cc2oc(=O)c(CCN3CCC(c4ccccc4)CC3)c(C)c2c(OC)c1OC
18,119 to 120,CCCCOc1nc(N)c2nc(OC)n(CCNc3cccc(CC(=O)OC)c3)c2n1
19,155 to 157,COc1ccc(NCC2CCn3c(nc4ccccc43)S2)cc1 (centres undefined)
20,154 to 160,Nc1nc(NCCc2ccc(CCC3CCCCC3)cc2)nc2c1ncn2C1OC(CO)C(O)C1O (centres undefined)
21,> 200,COC(=O)c1cccc(C[C@H](N)C(=O)O)c1
22,110 to 111,CS(=O)(=O)c1ccc(-c2cc(CO[N+](=O)[O-])nn2C2CCCCCCC2)cc1
23,140,O=C(c1ccc2c(c1)C(=O)N1CCC[C@H]1CO2)N1CCCCC1
24,96 to 98,c1ccc(CN2CCN(Cc3ccccc3)C(CCc3ccncc3)C2)cc1 (centres undefined)

row,melting point [°C],Structure (SMILES)
1,208,O=C1c2ccccc2C(O)N1c1ccc2ncccc2n1 (centres undefined)
2,292,NS(=O)(=O)c1ccc(-c2noc(-c3cnc4c(C(F)(F)F)cc(-c5ccc(C(F)(F)F)cc5)cn34)n2)cc1
3,155 to 167,CC(C)(C)OC(=O)Nc1ccc(-c2ccc(F)cc2)cc1[N+](=O)[O-]
4,210,O=C(Nc1ccc2nc(CN3CCCC3)ccc2c1)c1ccc(-c2ccc(F)cc2)nc1
5,178 to 181,O=C1C(C(c2ccccc2)c2ccccc2)NC2CCCC3C(C2)C13 (centres undefined)
6,110 to 111,CN(CCOc1ccc(Cn2cc(CCC(=O)O)c(-c3ccccc3)n2)cc1)c1ccccn1
7,135 to 137,O=C(Nc1ccc(Oc2ccc(Cl)cc2)nc1)N1CCc2ccccc2CC1
8,271 to 273,CCCCn1cc(C(=O)O)c(=O)c2oc3ccc(Cl)cc3c(=O)c21
9,108 to 110,O=C(c1sc(NC(=O)N2CCOCC2)nc1-c1ccco1)C1CCCC1
10,132,COc1ccc(C(=O)c2c(-c3ccccc3)sc3cc(OC)ccc23)cc1
11,229 to 233,O=C1c2ccc(N=CN3CCCCC3)cc2C(=O)c2ccc(N=CN3CCCCC3)cc21
12,143 to 145,CCC(C(=O)O)c1cccc(Oc2ccccc2Cl)c1O (centres undefined)
13,103 to 104,CC(Br)C(=C(C#N)C#N)c1ccccc1 (centres undefined)
14,172 to 175,Nc1ccccc1C(=O)Nc1cccnc1Cl
15,148 to 160,CNC(=O)[C@H](Cc1ccc(OC(C)C)cc1)NC(=O)[C@@H](N)CC(C)C
16,254 to 255,O=C(NCc1ccc(Cl)cc1)c1cnc2c(F)cc(Br)cc2c1
17,265 to 267,O=C1Nc2ccc(O)cc2Sc2ccccc21
18,236,Cc1cc(-c2cnn3c(C(F)(F)F)cc(-c4cccc(C(F)(F)F)c4)nc23)cc(C)n1
19,72 to 73,ClCc1coc(-c2cc(Cl)cs2)n1
20,220,O=c1[nH]c2ccc3c(c2o1)OC(CNCc1ccccc1)CO3 (centres undefined)
21,64.5 to 65,OC(c1ccc(Cl)cc1)c1cccc(Br)n1 (centres undefined)
22,110,CC1(C)COC1(Cn1cncn1)c1ccc(F)cc1 (centres undefined)
23,139 to 141,Nc1cccc(C=CC(=O)N2CCc3c([nH]c4ccccc34)C2c2ccc3c(c2)OCO3)c1 (centres undefined)
24,236 to 237,O=C(O)c1ccc(C=Cc2cc3ccccc3s2)s1

row,melting point [°C],Structure (SMILES)
1,133 to 134,Cc1nc(-c2ccccc2)nc(-c2cccc([N+](=O)[O-])c2)c1C(C)Br (centres undefined)
2,70 to 71,COC(=O)c1ccn2c1C(C(=O)OC)CC2 (centres undefined)
3,260 to 263,O=S1(=O)N=CN(C2CC2)c2ccc(F)c(Cl)c21
4,102 to 103,CCC(=CC(CSc1nc2ccccc2s1)=NO)C(C)[N+](=O)[O-] (centres undefined)
5,> 300,CC(=O)NCCNc1nc(Nc2ccc3[nH]nnc3c2)ncc1C(F)(F)F
6,112 to 114,CC=CC(=O)NCc1ccccc1
7,77 to 78,Cc1csc(-c2nc(COc3ccc(CCCCn4ccnc4)cc3)co2)c1
8,126,O=C(NO)[C@H](CNS(=O)(=O)c1ccc(OCc2ccccc2)cc1)N1CCCCC1
9,146 to 148,Cn1ccnc1C1(CCCCc2ccc(NC(=O)c3ccccc3)cc2)c2ccccc2-c2ccccc21
10,187 to 190,CC(=O)NC[C@H]1CN(c2cc(F)c(N3CCS(=O)(=O)CC3)c(F)c2)C(=O)O1
11,107 to 108,CN1c2ccc(C#CCOC3CCCCO3)cc2C(=O)CS1(=O)=O (centres undefined)
12,195 to 197,NC(=O)Nc1nc(CC(=O)Nc2cccc(C(F)(F)F)c2)cs1
13,195 to 199,O=C(O)CNc1ccco1
14,201 to 204,CNS(=O)(=O)c1ccc(N2CCC(C(=O)OC)=Cc3cc(Br)ccc32)cc1
15,147 to 149,O=C(O)C(=O)N1CCC(Oc2ccc(F)cc2)CC1
16,202,CC(=O)Nc1ccc(C)c(C=O)n1
17,237 to 238,CCOC(=O)c1nc2sc(C(=O)OCC)c(C)c2c(=O)[nH]1
18,145 to 146,C=CCC(CC=C)n1c(CC)nc2c1c(=O)n(C)c(=O)n2-c1ccc(Cl)cc1Cl
19,95 to 97,Cc1c(Cl)cccc1N=Cc1ccccc1O
20,187 to 188,COc1cc(C(=O)NS(=O)(=O)c2ccccc2C)ccc1Cn1ccc2ccc(CC(=O)NCC3CCCC3)cc21
21,201 to 203,COc1ccc(-c2ccnc3c(C(=O)c4cccs4)cnn23)cc1NC(=O)c1ccccc1
22,128 to 130,Cc1cccc(C(=O)NCN2CCN(c3ncccc3C#N)CC2)c1
23,63 to 65,FC(F)(F)Oc1ccc(-n2cc(Br)cn2)cc1
24,101 to 104,CCCCCCCCCCCC(=O)NC(CCC(=O)O)C(=O)O (racemic)

row,melting point [°C],Structure (SMILES)
1,229 to 235,COc1cc2oc(=O)c(CCO)c(C)c2cc1O
2,165 to 166,Cc1nc(-c2ccc(Br)cc2)sc1C(=O)N[C@H](C)[C@](O)(Cn1cncn1)c1ccc(F)cc1F
3,191 to 193,O=S1(=O)CCN2CCCC(c3ccc(Oc4ccc(C(F)(F)F)cc4)cc3)C2=N1 (centres undefined)
4,> 300,CC(C)c1cc(C(=O)Nc2ccc(C(=O)O)cn2)sc1C(C)C
5,106 to 108,CCN(CC)c1ccc2cc(C(=O)OCCO)c(=O)oc2c1
6,89 to 91,Cc1cc(CCCCCSc2ccc(C3=NCCO3)cc2)on1
7,190 to 192,c1ccc(C2CN(CCc3ccccn3)Cc3c2[nH]c2ccccc32)cc1 (centres undefined)
8,155 to 160,ICc1nc(-c2ccc3c(c2)OCO3)c2cc3c(cc2n1)OCO3
9,192,Nc1nc(Cl)cc(Oc2ccc3[nH]ccc3c2)n1
10,86 to 87,C[C@@H]1CN(C(=O)[C@@](C)(O)C(F)(F)F)[C@@H](C)CN1S(=O)(=O)c1ccc(C(=O)N(C)C)cc1
11,208 to 210,CC(C)(C)OC(=O)N1CCn2c(Cl)c(-c3cccc(C#N)c3)c(C(=O)O)c2C1
12,206 to 207,COc1cccc(Oc2c(Cl)nc(-c3cccs3)nc2NS(=O)(=O)c2ccc(C(C)(C)C)cc2)c1
13,292 to 296,O=C(Cc1cccc(Br)c1)Nc1ccc(Sc2c(O)c3c(Cl)cc(Cl)cc3[nH]c2=O)cc1
14,81 to 82,COc1ccc(-c2sc(-c3ccccc3)cc2OC(C)=O)cc1
15,189 to 191,COc1cc(C)c(C=CC(C)=CC=CC(=O)O)c(C)c1C
16,> 250,COCn1cc(C2=C(c3cn(C)c4cc([N+](=O)[O-])ccc34)C(=O)NC2=O)c2ccccc21
17,224 to 225,O=C(Nc1ncccn1)Nc1ccccc1C(F)(F)F
18,253 to 254,CN1CCN(c2c(CO)cnc3c(NC(=O)c4c(Cl)cccc4Cl)cccc23)C1=S
19,200 to 201,COc1cc2c(cc1-c1cccnc1)-c1c(-c3cncs3)c3c(n1CC2)C(=O)N(C(C)(C)C)CCCOC3
20,94 to 95,CC(C)(OC(=O)CCc1nc(-c2ccc(Cl)cc2)co1)c1ccccc1
21,137 to 139,CCOC(=O)Oc1ccc(S(=O)(=O)N2c3cc(Br)ccc3-n3cccc3[C@@H]2CC)cc1

row,Structure (SMILES),melting point [°C]
1,CC1(CN2CCC(N3CCNC3=O)CC2)OCc2ccccc2-n2cccc21 (centres undefined),197 to 199
2,OC1CN2[C@H]3CC[C@@H]2[C@@H]1[C@@H](c1ccc(Cl)c(Cl)c1)C3 (some centres undefined),156 to 158
3,N#CC1CN1C(=S)NC(=O)c1ccccc1 (centres undefined),135 to 140
4,COc1cc2c(cc1OC)C(O)C(N1CCC(N3c4ccccc4NC3C)CC1)C2 (centres undefined),255 to 256
5,COc1cc(C)cc(OC)c1C1=NC(NC(=O)Nc2cccc(C)c2)C(=O)N(C)c2ccccc21 (centres undefined),260
6,COc1ccc(/C=C/[N+](=O)[O-])c(F)c1,80 to 82
